Tests used:
[1] = patients receiving cisplatin; Helson 1978; cited from earlier work
[2] = system: NuTu-19 ovarian cancer cells; assay: MTS cell viability assay, cultured NuTu-19 cells; assay type: cell-based, rat; conditions: for effect on the ability of cisplatin to kill NuTu-19 cells: with cisplatin 43 μM, FIG. 2 and 3
Protocol: NuTu-19 cells were plated at a density of 3,000 cells per well in 96 well culture dishes, and incubated at 37° C., in the presence of 5% carbon dioxide, for 24 hours. […] The NuTu-19 cells were then rinsed with media and incubated in the presence of cisplatin for an additional 24 hours.
The NuTu-19 cells were then rinsed twice with phosphate buffered saline (PBS), then MTS assays were performed to measure the number of living cells. MTS is an abbreviation for (3-(4,5-dimethylthiazol-2-yl)-5-(3-carboxymethoxyphenyl)-2-(4-sulfophenyl)-2H-tetrazolium. The MTS assay is a colorimetric method for determining the number of viable cells based upon physiologic catabolism of MTS to a formazan product that is soluble in tissue culture medium. The absorbance of the formazan product at 490 nm can be measured directly from a 96 well plate using a plate reader. Increased absorbance at 490 nm correlates with increased production of formazan in a well. This is typically due to more viable cells present in a well.

[3] = system: NuTu-19 tumors; assay: NuTu-19 ovarian cancer tumor model in F-344 rats, tumor response; assay type: in vivo, rat
Protocol: An ovarian cancer tumor model was established in rats by injection of 10^7 NuTu-19 cells into the peritoneal cavity of 8-10 week old female F-344 rats. Rats with injected NuTu-19 cells were allowed to develop tumor burden for two weeks prior to cisplatin treatment. A control series of 10 rats was evaluated separately for the development of ovarian tumor burden under the described conditions. All rats in the control series were sacrificed 5 weeks after NuTu-19 tumor cell injection and tumor burden was evaluated.
The absence of ascites, but presence of more than 5 visible tumor nodules (each >0.5 mm) in the peritoneal cavity was considered to be an indication that the cancer partially responded to the treatment. The absence of ascites and presence of fewer than 5 visible tumor nodules (each >0.5 mm) was considered to be an indication that the cancer fully responded to the treatment.

[4] = system: mammalian ovarian cancer cell lines; assay: MTT cytotoxicity study, statements over all ovarian cancer cell lines tested; assay type: cell-based
Protocol: (§1) Each of the cell lines listed above was plated at a density of 3,500 cells per well in 96 well plates and incubated at 37° C. for 24 hours. […] After the one hour incubation, 50 μl of cisplatin and paclitaxel were added to the cell lines at the various concentrations shown in TABLE 2 to achieve an IC50 in the absence of other drugs. The cells were then incubated at 37° C. in 5% CO2 in the presence of the cisplatin and paclitaxel for an additional 67-72 hours.
(§2) After the 67-72 hour incubation period, 10 μl of MTT (3-(4,5-dimethlythiazol-2-yl)-2,5-diphenyl […] bromide) working solution was added to each well (based on the instructions in the Chemicon MTT Cell Growth Kit Cat #CT01) and the cells were incubated for 4 hours. 100 μl of isopropanol/HCl solution was then added to each well and absorbance at 570 nm was measured.

[5] = system: rSPI-tu epithelial ovarian cancer cells; assay: MTT cytotoxicity study with ebselen and allopurinol; assay type: cell-based, rat; conditions: each drug 100 μM, no cisplatin/paclitaxel
Protocol: as §1, with “The cells were then incubated at 37° C. in 5% CO2 in the presence of the cisplatin and paclitaxel for an additional 67-72 hours.” left out
as §2, with “[…],” for “After the 67-72 hour incubation period,”

[6] = system: SKOV-3 adenocarcinoma ovarian cancer cells; assay: as above; assay type: cell-based, human; conditions: each drug 100 μM, no cisplatin/paclitaxel
Protocol: as §1, with “67-72 hours. Control wells were included as follows: no drug, ebselen, allopurinol, ebselen and allopurinol, and cisplatin/paclitaxel.” for “67-72 hours.”
as §2, with “measured. The results of the MTT assay for the different ovarian cancer cell lines tested are shown in FIGS. 9A-16C and are summarized below in TABLE 3.” for “measured.”

[7] = system: OVCAR-3 adenocarcinoma ovarian cancer cells; assay: as above; assay type: cell-based, human; conditions: each drug 100 μM, no cisplatin/paclitaxel
Protocol: as §1, with “67-72 hours. Control wells were included as follows: no drug, ebselen, allopurinol, ebselen and allopurinol, and cisplatin/paclitaxel.” for “67-72 hours.”
as §2, with “measured. The results of the MTT assay for the different ovarian cancer cell lines tested are shown in FIGS. 9A-16C and are summarized below in TABLE 3.” for “measured.”

[8] = system: ES-2 clear cell carcinoma ovarian cancer cells; assay: as above; assay type: cell-based, human; conditions: each drug 100 μM, no cisplatin/paclitaxel
Protocol: as §1, with “67-72 hours. Control wells were included as follows: no drug, ebselen, allopurinol, ebselen and allopurinol, and cisplatin/paclitaxel.” for “67-72 hours.”
as §2, with “measured. The results of the MTT assay for the different ovarian cancer cell lines tested are shown in FIGS. 9A-16C and are summarized below in TABLE 3.” for “measured.”

[9] = system: TOV-112D adenocarcinoma/endometroid carcinoma ovarian cancer cells; assay: as above; assay type: cell-based, human; conditions: each drug 100 μM, no cisplatin/paclitaxel
Protocol: as §1, with “67-72 hours. Control wells were included as follows: no drug, ebselen, allopurinol, ebselen and allopurinol, and cisplatin/paclitaxel.” for “67-72 hours.”
as §2, with “measured. The results of the MTT assay for the different ovarian cancer cell lines tested are shown in FIGS. 9A-16C and are summarized below in TABLE 3.” for “measured.”

[10] = system: CAOV-3 adenocarcinoma ovarian cancer cells; assay: as above; assay type: cell-based, human; conditions: each drug 100 μM, no cisplatin/paclitaxel
Protocol: as §1, with “67-72 hours. Control wells were included as follows: no drug, ebselen, allopurinol, ebselen and allopurinol, and cisplatin/paclitaxel.” for “67-72 hours.”
as §2, with “measured. The results of the MTT assay for the different ovarian cancer cell lines tested are shown in FIGS. 9A-16C and are summarized below in TABLE 3.” for “measured.”

[11] = system: OV-90 papillary serous adenocarcinoma ovarian cancer cells; assay: as above; assay type: cell-based, human; conditions: each drug 100 μM, no cisplatin/paclitaxel
Protocol: as §1, with “67-72 hours. Control wells were included as follows: no drug, ebselen, allopurinol, ebselen and allopurinol, and cisplatin/paclitaxel.” for “67-72 hours.”
as §2, with “measured. The results of the MTT assay for the different ovarian cancer cell lines tested are shown in FIGS. 9A-16C and are summarized below in TABLE 3.” for “measured.”

[12] = system: non-cancer cell line; conditions: Baldew et al. 1992; cited from earlier work
[13] = system: inner ear hair cells; assay: Cochlea explant culture, inner ear hair cell count (calbindin/DAPI); assay type: cell-based, mouse; conditions: FIG. 5
Protocol: Three cochlea per treatment, obtained from P3-4 mouse pups, were cultured in 0.4 micrometer MilliCell-CM inserts with NeuroBasal A medium plus B27 supplement. After 24 hours in culture, ebselen was added to the medium, incubated for ten minutes, and then cisplatin was added to the medium at a final concentration of 43 μM. A first control treatment included 43 μM cisplatin. A second control treatment included 47 μM ebselen without the addition of cisplatin. All cultures were incubated for 24 hours at 37° C. in 5% carbon dioxide.
The explants were then harvested, fixed, and stained with calbindin (which detects hair cells) and DAPI (4′,6-Diamindino-2-phenylindole; for detection of nuclear DNA).

[14] = system: cochlear outer hair cells; assay: Count of outer auditory hair cells in excised cochleae after cisplatin; assay type: in vivo, rat; conditions: cisplatin and ebselen versus cisplatin, saline and DMSO; FIG. 8A, 8B
Protocol: (§3) Auditory Evoked Brainstem Response (ABR) was used to assess hearing in rats before and after exposure to cisplatin and chemoprotectants. Ebselen or DMSO (control vehicle) were introduced intraperitoneally into rats one hour before intraperitoneal administration of cisplatin at a dosage of 16 mg/kg body weight. Seventy-two hours after delivery of cisplatin, ABR data were collected, animals were sacrificed, cochleae were collected, dissected, stained with FITC-phalloidin (to detect F-Actin in hair cells), and DAPI (to detect nuclear DNA).
Additionally, cochleae were excised from rats treated with the combination of cisplatin and ebselen as described in this Example. Cochleae were also excised from rats treated with cisplatin and saline and DMSO (control). The number of outer auditory hair cells in the excised cochlea were counted at intervals of 0.1 mm along the cochlea. Representative results from a control rat and a treated rat are shown in FIG. 8A and FIG. 8B, respectively.

[15] = system: rats treated with cisplatin; assay: Auditory Evoked Brainstem Response (ABR), permanent threshold shift after cisplatin; assay type: in vivo, rat; conditions: 8, 16, 24, 32 kHz; ebselen 16 mg/kg i.p. plus cisplatin 16 mg/kg i.p., versus cisplatin without ebselen; 72 hours; FIG. 6
Protocol: as §3
Ten cochlea were tested per treatment. The PTS is a measure of hearing loss.
Four cochlea were tested per treatment.

[16] = system: TOV-21G adenocarcinoma/clear cell carcinoma ovarian cancer cells; assay: MTT cytotoxicity study with ebselen and allopurinol; assay type: cell-based, human; conditions: each drug 100 μM, no cisplatin/paclitaxel
Protocol: as §1, with “67-72 hours. Control wells were included as follows: no drug, ebselen, allopurinol, ebselen and allopurinol, and cisplatin/paclitaxel.” for “67-72 hours.”
as §2, with “measured. The results of the MTT assay for the different ovarian cancer cell lines tested are shown in FIGS. 9A-16C and are summarized below in TABLE 3.” for “measured.”

[17] = treatment of acute ischemic stroke; cited from earlier work
[18] = all cell lines tested, concentration range from 20 μM to 100 μM

Compound	effect on the ability of cisplatin to kill NuTu-19 cells [2]	cytotoxicity on the ovarian cancer cell lines [4, 18]	Percent live cells after 96 hour drug treatment [5]	Percent live cells after 96 hour drug treatment [6]	Percent live cells after 96 hour drug treatment [7]	Percent live cells after 96 hour drug treatment [8]	Percent live cells after 96 hour drug treatment [9]	Percent live cells after 96 hour drug treatment [10]	Percent live cells after 96 hour drug treatment [11]	other results
N.N.[Cl][Pt][Cl] [cisplatin, cis-diaminedichloroplatinum]	–	–	–	–	–	–	–	–	–	patients who experience significant hearing loss [1]: up to 90%; killing of cultured NuTu-19 ovarian cancer cells ([2]; incubation for 24 hours in the presence of cisplatin, FIG. 1): killed; Tumor Response % Complete ([3]; rats that showed no sign of tumor burden): 57%; Tumor Response % Partial ([3]; rats that showed some evidence of tumor burden): 43%; Tumor Response % No ([3]; rats with tumors not responsive to cisplatin treatment): 0%
Oc1ncnc2[nH]ncc12 [allopurinol]	does not inhibit the ability of cisplatin to kill NuTu-19 ovarian cancer tumor cells	did not have a toxic effect	~80%	~90%	~100%	~90%	~100%	~80%	~100%	–
O=c1c2ccccc2[se]n1-c1ccccc1 [ebselen, 2-phenyl-1,2-benzoisoselenazol-3(2H)-one]	does not inhibit the ability of cisplatin to kill NuTu-19 ovarian cancer tumor cells	induced dose-dependant cytotoxicity	~20%	~40%	~20%	~20%	~18%	~0%	~40%	toxicity in a non-cancer cell line [12]: non-toxic; protection of inner ear hair cells from damage by cisplatin ([13]; 47 μM ebselen plus 43 μM cisplatin, 24 hours, in vitro): protects inner ear hair cells from damage by cisplatin; cytotoxic effect on cochlear inner ear cells ([13]; ebselen 47 μM without cisplatin): does not appear to have a cytotoxic effect; effect on the chemotherapeutic activity of cisplatin and paclitaxel in multi-drug chemotherapy resistant cell lines ([4]; ES-2, SKOV-3 and OVCAR-3): enhanced the chemotherapeutic activity of cisplatin and paclitaxel; effect on the chemotherapeutic effect of cisplatin plus paclitaxel [4, 18]: enhances the chemotherapeutic effect of cisplatin plus paclitaxel; percentage of outer hair cells missing in cochleae [14]: less; permanent threshold shift (PTS) in hearing [15]: PTS is less; Percent live cells after 96 hour drug treatment [16]: ~18%; adverse events in human clinical testing [17]: no adverse events were identified
